Entries after “also recorded” stand apart in the source; their conditions may differ.
Experiments:
[1] = test system: human skin explants (epidermis); assay: Human skin organ culture with UVB stressor, viability by MTT assay; type: cell-based; details: UVB 200 mJ/cm2, topical 3 μl before and after irradiation, 48 hours in total; compared to irradiated control
Method: (§1) Topical exposure till 48 hours in total (24 hr recovery following topical application+24 hr after exposure to UVB irradiation) with UVB radiation as stressor on human skin model
(§2) The following general procedure was used in the study:
(§3) Day 1: Topical application of 3 μl of each sample solution on the epidermis of each skin explant. Incubate for 24 hours. SDS 10% was applied only once, and was not farther irradiated with UVB.
(§4) Day 2: Skin explants were washed once with PBS and irradiated with UVB lamp at 200 mJ/cm2. After radiation it was incubated for 30 min and then topically apply each treatment (sample solution) again. Control was not irradiated under UVB light. UVB radiated control was without any treatment except radiation.
(§5) Day 3: Viability and Caspase3 activity were measured for the epidermis layer. The medium was collected for cytokines test.
FIG. 2 illustrates a flow diagram of topical exposure/treatment till 48 hours, 24 hr recovery following topical application +24 hr after exposure to UVB irradiation) with UVB radiation as stressor on human skin model experiment. In the Experiment the SDS irritation control sample was a skin explant that was topical applied with 3 μl SDS 10% solution at day 1 only.
The viability of the various skin explants was measured by the 5-dimethylthiazol-2-yl]-2,5-diphenyl tetrazolium bromide (MTT) assay.

TNFα [2] = assay: Human skin organ culture with UVB stressor, TNFα secretion in the medium; type: cell-based; details: UVB
Method: as §1, §2, §3, §4, §5
FIG. 4 illustrates the TNFα secretion results in the medium as observed with 2 to 4 repetition of the tests. In FIG. 4 the TNFα secretion of the irradiated sample “UVB” was selected as 100% and it equals 53±30 pg/ml.

IL-1α [3] = assay: Human skin organ culture with UVB stressor, IL-1α secretion in the medium; type: cell-based; details: UVB
Method: as §1, §2, §3, §4, §5
FIG. 5 illustrates the IL-1α secretion results in the medium as observed with 3 to 4 repetition of the tests. In FIG. 5 the IL-1α secretion of the irradiated sample “UVB” was selected as 100% and it equals 8.1±1.0 pg/ml.

[4] = test system: human skin explants (epidermis); assay: Human skin organ culture without UVB stressor, topical exposure till 96 hours, viability by MTT assay; type: cell-based; details: no UVB; 96 hours of topical application; vs control
Method: (§6) Topical Exposure Till 96 Hours without External UVB Radiation as Stressor on Human Skin Model
(§7) Day 1: Topical application of 3 μl of each solution on the epidermis of each skin explant. Incubate for 24 hours. (SDS Irritation control: topical application of 3 ul SDS 10% was applied on the skin model at day 1 only. The rest of the days samples were untouched).
(§8) Day 2: Topical application of 3 μl of each solution on the epidermis of each skin explant. Incubate for 24 hours in fresh medium (medium was not collected). (UVB control: after 24 hours incubation with 3 μl H2O skin was irradiated with 200 mJ/cm2 UVB. The rest of the experiment days sample were topically applied with H2O, as control).
(§9) Day 3: Topical application of 3 μl of each solution on the epidermis of each skin explant. Incubate for 24 hours in fresh medium (medium was collected)—48 hours of total topical incubation.
(§10) Day 4: Topical application of 3 μl of each solution on the epidermis of each skin explant. Incubate for 24 hours in fresh medium (medium was collected)—72 hours of total topical incubation.
Day 5: Topical application of 3 μl of each solution on the epidermis of each skin explant. Incubate for 24 hours in fresh medium (medium was collected)—96 hours of total topical incubation. MTT assay was performed. […]
The viability of the various skin explants was measured by the MTT assay.

TNFα [5] = assay: Human skin organ culture without UVB stressor, TNFα secretion; type: cell-based; details: no UVB
Method: as §6, §7, §8, §9, §10
(§11) Day 5: Topical application of 3 μl of each solution on the epidermis of each skin explant. Incubate for 24 hours in fresh medium (medium was collected)—96 hours of total topical incubation. MTT assay was performed.
FIG. 8 illustrates the TNFα secretion tested results. In FIG. 8 the TNFα secretion of the H2O sample was used as a control (0.35±0.05 pg/ml) for each time point.

IL-1α [6] = assay: Human skin organ culture without UVB stressor, IL-1α secretion; type: cell-based; details: no UVB; Retinol 1.0%; 48, 72 and 96 hours
Method: as §6, §7, §8, §9, §10, §11
FIG. 9A illustrates the IL-1α secretion results in the medium. In FIG. 9A the IL-1α secretion of the H2O sample was used as a control (9.0±0.7 pg/ml […]) for each time point. FIG. 9B is a magnification of FIG. 9A.

skin equivalents = assay: DNA microarray gene expression in skin equivalents, comparative with 3D complex and Retinol (Example 6); type: cell-based, human; details: Retinol 5 μM
Method: In the present study the biological activity on gene expression of the pRETINOL complex was compared to the activity of a composition which was previously described in [13] and [14] and referred to herein as 3D complex. The activity was further compared to that observed with Retinol (5 μM of Retinol in double distilled water).
On each array, treated vs. untreated samples were compared. Each array was processed and the data from all arrays was normalized to get the average expression and log fold change (log FC) for each gene on each array.
An analysis of full human genome was performed.
Further to the above analysis, similar to the study presented in Example 5, major skin related pathways were selected from KEGG and wiki pathways list and the p-value and z-score were calculated for these pathways.

[7] = test system: human primary fibroblasts; assay: Hyaluronic acid production assay (ELISA); type: cell-based; details: Retinol 1.0 μM in the culture media; 48 hours
Method: The human primary fibroblast cell culture was grown at an 80% confluence in Dulbecco's Modified Eagle's High glucose (Hg) medium (DMEM) culture medium containing 10% fetal bovine serum, 100 U/ml penicillin, and 100 U/ml streptomycin. The cells were cultivated in 6 wells plates.
The pRetinol complex was added at a final concentrations of. Osmoter 0.2%, Dunaliella salina extract 1.2%, Niacinimide 0.04% and 6.24 ppm of β-Carotene i.e., 2.5 times dilution (the dilution was necessary in view of the human primary fibroblast cells culture being more sensitive than skin full organ culture). Retinol was added to the medium at a final concentration of 1.0 μM.
The cells were incubated at 37° C., 5% CO2 at a 100% RH for 48 hours. After incubation the cells were extracted using RIPA buffer collected to a blending Eppendorf and ground using stain steal beads and a bullet blender for 5 min. The samples were centrifuged for 15 min at 5000 rpm and the supernatant was collected.
BCA Protein concentration assay were performed on all the samples. The protein level for all samples was dilated to reach a concentration of 0.1 ng/ml of protein, diluted with PBS. Samples contain a protein concentration of 0.1 ng/ml were tested for hyaluronic ELISA assay kit (R&D systems, ELISA kit). Results were obtained as ng/ml of hyaluronic acid per 1 μg of protein. […]

SMILES: CC1=C(/C=C/C(C)=C/C=C/C(C)=C/CO)C(C)(C)CCC1 [Retinol]
- viability (MTT, mitochondrial activity) of epidermis [1]: increased mitochondrial activity
- reduction of TNFα secretion compared to the irradiated sample (TNFα [2]; Retinol 0.5% (w/w) in EtOH): 56%
- reduction of TNFα secretion compared to the irradiated sample (TNFα [2]; Retinol 1.0% (w/w) in EtOH): 45%
- increase of IL-1α secretion (IL-1α [3]; Retinol 0.05% (w/w) in EtOH): 83%
- increase of IL-1α secretion (IL-1α [3]; Retinol 0.5% (w/w) in EtOH): 50%
- increase of IL-1α secretion (IL-1α [3]; Retinol 1.0% (w/w) in EtOH): 53%
- viability (MTT, mitochondrial activity) of skin explants [4]: did not cause increase or reduction of viability
- TNFα secretion (TNFα [5]; Retinol 0.5%, after incubation of 72 hours, H2O control 0.35±0.05 pg/ml): below the detection level
- TNFα secretion (TNFα [5]; Retinol 1.0%, after incubation of 72 hours, H2O control 0.35±0.05 pg/ml): below the detection level
- TNFα secretion (TNFα [5]; Retinol for 48, 72 and 96 hours, reduction also observed with ethanol only): caused a reduction
- IL-1α secretion (IL-1α [6]): increased; also recorded: caused an increase
- z-score (skin equivalents; KEGG_APOPTOSIS): 1.0758
- z-score (skin equivalents; KEGG_BASE_EXCISION_REPAIR): −0.2818
- z-score (skin equivalents; KEGG_NF_KAPPA_B_SIGNALING_PATHWAY): −0.4673
- z-score (skin equivalents; KEGG_NOD-LIKE_RECEPTOR SIGNALING PATHWAY): −0.3502
- z-score (skin equivalents; KEGG_SPHINGOLIPID_METABOLISM): −0.6417
- z-score (skin equivalents; KEGG_TNF_SIGNALING_PATHWAY): −1.1097
- z-score (skin equivalents; KEGG_YERSINIA_INFECTION): 1.5054
- z-score (skin equivalents; WIKI_KERATINIZATION): 10.548
- production of hyaluronic acid compared to the control sample [7]: induce the production of hyaluronic acid

— patent publication US20230172925A1, “SKIN-CARE COMPOSITIONS AND USES THEREOF” (AHAVA - DEAD SEA LABORATORIES LTD., priority 2019, published 2023)
